Values quoted from earlier work, collected in patent publication US5603954A (priority 1995, dated 1997).

Legend:
[1] = metabolites appear after dosing in the plasma
[2] = system: patients with chronic peripheral arterial disease

What does the source list for `CC(=O)CCCCn1c(=O)c2c(ncn2C)n(C)c1=O` [pentoxifylline, 3,7-dihydro-3,7-dimethyl-1-(5-oxohexyl)-1H-purine-2,6-dione]?
first-pass effect [1]: undergoes a first-pass effect; blood flow to the affected microcirculation [2]: increases the blood flow; tissue oxygenation [2]: enhances tissue oxygenation
